From patent US11905553B2, “Method for nucleic acid amplification” (ST. JUDE CHILDREN'S RESEARCH HOSPITAL, INC., priority 2018, dated 2024)
Entries after “also recorded” stand apart in the source; their conditions may differ.

Assays:
[1] = test system: Umbilical cord blood cells that express the stem/progenitor marker CD34; test: Direct measurement of environmental mutagenicity (DMEM): exposed single cells, PTA and single-cell sequencing; format: cell-based, human; conditions: for enrichment of variants in DNase I hypersensitive (DH) sites: ENU-exposed CD34+ cells vs Roadmap Epigenomics DH sites (FIG. 12D, 12E)
Source text: PTA was used to conduct a novel mutagenicity assay that provides a framework for performing high-resolution, genome wide human toxicogenomics studies. Previous studies such as the Ames test, relies on bacterial genetics to make measurements that are assumed to be representative of human cells while only providing limited information on the mutation number and patterns induced in each exposed cell. To overcome these limitations, a human mutagenesis system “direct measurement of environmental mutagenicity (DMEM)” was developed, wherein single human cells was exposed to an environmental compound, isolated as single cells, and subjected to single-cell sequencing to identify the new mutations induced in each cell.
Umbilical cord blood cells that express the stem/progenitor marker CD34 were exposed to increasing concentrations of the direct mutagen N-ethyl-N-nitrosourea (ENU).
ENU (CAS 759-73-9) and D-mannitol (CAS 69-65-8) were put into solution at their maximal solubility. Fresh anticoagulant-treated umbilical cord blood (CB) was obtained from St. Louis Cord Blood Bank. CB was diluted 1:2 with PBS and mononuclear cells (MNCs) were isolated by density gradient centrifugation on Ficoll-Paque Plus according to manufacturer's instructions. CB MNCs expressing CD34 were then immunomagnetically selected using the human CD34 microbead kit and magnetic cell sorting (MACS) system as per the manufacturer. Cell count and viability were assessed using the Luna FL cell counter. CB CD34+ cells were seeded at a density of 2.5×10^4 cells/mL in StemSpan SFEM supplemented with 1×CD34+ Expansion supplement, 100 units/mL of penicillin, and 100 ug/mL of streptomycin where they expanded for 96 hours before proceeding to mutagen exposure.
Expanded cord blood CD34+ cells were cultured in StemSpan SFEM supplemented with 1×CD34+ Expansion Supplement, 100 units/mL of penicillin, and 100 ug/mL of streptomycin. The cells were exposed to ENU at concentrations of 8.54, 85.4, and 854 uM, D-mannitol at 1152.8, and 11528 uM, or 0.9% sodium chloride (vehicle control) for 40 hours. Single-cell suspensions from drug-treated cells and vehicle control samples were harvested and stained for viability as described above. Single cell sorts were carried out as described above. PTA was performed and libraries were prepared using a simplified and improved protocol as per the general methods of the methods described herein, and Example 2.
Data acquired from cells in the DMEM experiments were trimmed using Trimmomatic, aligned to GRCh38 using BWA, and further processed using GATK 4.0.1 best practices without deviation from the recommended parameters. Genotyping was performed using HaplotypeCaller where joint genotypes were again filtered using standard parameters. […] The trinucleotide context of each SNV was determined by extracting the surrounding bases from the reference genome using bedtools. Mutation counts and context were visualized using ggplot2 and heatmap2 in R.
To determine whether mutations were enriched in DNase I hypersensitivity sites (DHS) in CD34+ cells, the proportion of SNVs in each sample that overlap with DHS sites from 10 CD34+ primary cell datasets produced by the Roadmap Epigenomics Project were calculated. DHS sites were extended by 2 nucleosomes, or 340 bases in either direction. Each DHS dataset was paired with a single cell sample where we determined the proportion of the human genome with at least 10× coverage in that cell which overlapped with a DHS, which was compared to the proportion of SNVs that were found within the covered DHS sites.

mice = conditions: limited sequencing of target genes; cited from earlier work
[2] = test system: leukemia cells; clone harboring an activating KRAS mutation; test: Leukemia cells in culture exposed to increasing concentrations of standard ALL chemotherapy drugs, bulk sequencing of clones; format: cell-based, human; conditions: for sensitivity of the clone harboring an activating KRAS mutation: pediatric ALL sample in culture, bulk sequencing (FIG. 7)
Source text: Single-cell exome sequencing of individual leukemia cells harboring an ETV6-RUNX1 translocation has been performed, measuring approximately 200 coding mutations per cell, only 25 of which have been present in enough cells to be detected with standard bulk sequencing in that patient. The mutation load per cell has then been incorporated with other known features of this type of leukemia, such as the replication-associated mutation rate (1 coding mutation/300 cell divisions), the time from initiation to diagnosis (4.2 years), and the population size at the time of diagnosis (100 billion cells) to create an in silico simulation of the development of the disease. It has been unexpectedly discovered that even in what has been thought to be a genetically simple cancer such as pediatric ALL, there are an estimated 330 million clones with distinct coding mutation profiles at the time of diagnosis in that patient. […] Accordingly, methods are provided for enhancing the sensitivity of detection so that clones that make up at least 0.01% (1:10,000) of the cells (box B) can be detected, as this is the stratum in which most resistant disease that causes relapse is hypothesized to reside.
Given such a massive population genetic diversity, it has been hypothesized that there are clones that are more resistant to treatment within a given patient. To test that hypothesis, the sample is placed in culture and the leukemia cells are exposed to increasing concentrations of standard ALL chemotherapy drugs. […] This approach also employed bulk sequencing of the treated samples. The use of single-cell DNA sequencing in some instances allows a determination of the diversity and clonotypes of the expanding populations.

## CCN(N=O)C(N)=O [ENU, N-ethyl-N-nitrosourea]
[1]; ENU 8.54, 85.4 and 854 uM, 40 hours, cord blood CD34+ cells (FIG. 12A)
  mutation number of each cell: dose-dependent increase in mutation number of each cell
[1]; ENU-exposed CD34+ cells (FIG. 12B)
  type of base changes induced: the most common mutations are T to A (A to T), T to C (A to G), and C to T (G to A); also recorded: C to G (G to C) transversion appears to be rare
[1]; ENU-exposed CD34+ cells (FIG. 12C)
  trinucleotide context of the SNVs: cytosine mutagenesis appears to be rare when cytosine is followed by guanine; also recorded: most thymine variants occur where adenine is present before thymine
[1]; ENU-exposed CD34+ cells (FIG. 12F)
  genomic feature annotation of the variants relative to the genome: not significantly different; also recorded: No specific enrichment was seen in specific annotations
[1]
  enrichment of variants in DNase I hypersensitive (DH) sites: no enrichment of cytosine variants in DNase I hypersensitivity sites was observed; also recorded: No significant enrichment in variant locations at DH sites was identified
[1]; listed as N-ethyl-N-nitrosourea
  enrichment of variants in DNase I hypersensitive (DH) sites: No significant enrichment of cytosine variants was observed
mice
  preference of base changes: preference for T to A (A to T), T to C (A to G), and C to T (G to A) changes

## COc1cccc2c1C(=O)c1c(O)c3c(c(O)c1C2=O)C[C@@](O)(C(C)=O)C[C@@H]3O[C@H]1C[C@H](N)[C@H](O)[C@H](C)O1 [daunorubicin]
[2]
  sensitivity of the clone harboring an activating KRAS mutation: more sensitive; also recorded: killed

## C[C@]12C=CC(=O)C=C1CC[C@@H]1[C@@H]2[C@@H](O)C[C@@]2(C)[C@H]1CC[C@]2(O)C(=O)CO [prednisolone]
[2]
  sensitivity of the clone harboring an activating KRAS mutation: more sensitive; also recorded: killed

## asparaginase
[2]; lowest dose of asparaginase, pediatric ALL sample in culture (FIG. 7)
  behaviour of the clone harboring an activating KRAS mutation: continued to expand
